From publication PMC13586308, “Cell type–selective targeting by heterobifunctional protein binders via in-cell enrichment” (Nature Communications, 2026) come the findings set out here.

Broadly, the Kd is the free concentration of one partner at which half of the binding sites on the other are occupied at equilibrium, for simple one-to-one binding. Broadly, the IC50 is the concentration needed to halve the response being measured. Higher therefore signals weaker potency in that assay.

Where only a bound is given, the exact number is not on record here.

A short description of series [1]: cell uptake assay (LC-MS/MS) in MV4-11.
The subject of another series is MYC mRNA. Briefly: wash-off experiment, MYC mRNA in MV4-11. The format is cell-based, human.
The test system of the next series is gene expression. Description: RNA sequencing, MV4-11. The format is cell-based, human. To be noted: MV4-11, 6 h. As to the method:
RNA was isolated using the Monarch Total RNA Isolation Kit. RNA quality was assessed using an Agilent TapeStation. All samples had calculated RINe values > 6 with a flat baseline. […] Samples were demultiplexed, and FastQ files were generated. Raw FASTQ reads were quality-filtered using fastp v1.3.2 to remove adapters, low-quality bases (Phred ≤ 5 in > 50% of read) and poly-N regions (> 10% N bases), retaining reads with Q20 ≥ 95% and Q30 ≥ 90%. GC content was calculated for clean reads. Filtered sequence reads were aligned to the human reference genome GRCh38 using HISAT2 v2.2.1, guided by GTF annotation. Mapped data were summarized on the gene level as Fragments Per Kilobase of transcript sequence per Millions base pairs sequenced (FPKM). Gene counts were quantified using featureCounts v2.0.6. Further data evaluation, normalization and pairwise differential expression analyses was done by DESeq2. For clustering, all differentially expressed genes were pooled as the differential gene set. FPKM values of genes were hierarchically clustered, rows were homogenized as Z-scores. For enrichment analysis of the differential expressed genes, cluster Profiler (Yu G, 2012) software was used on Gene Ontology (http://www.geneontology.org/) terms reflecting biological processes.

The test system of series [2] is FKBP and BRD4 family members. Briefly: global proteomics after PROTAC treatment, MV4-11. The format is cell-based, Homo sapiens. As to the method:
Cell pellets equivalent to those used in the cell uptake assay were resuspended in 220 μL of 50 mM Tris pH 8.0, 2% SDS for 30 min at 850 rpm at RT, and centrifuged at 15000 g for 15 min. […] The supernatant was reduced with 5 mM DTT at 37 °C for 30 min then alkylated with 15 mM iodoacetamide at room temperature for 30 min in the dark. 150 μl of the solutions were subjected to a Protein Aggregation Capture digestion protocol using amine magnetic beads ([…]) and a King Fischer instrument (Thermo Scientific). In short, soluble proteins are captured on the magnetic beads and washed prior to the addition of 1/50 (w/w) trypsin (Promega) for an overnight digestion at 37 °C and 850 rpm. On the consecutive day, digested peptides are released, and the peptide concentration of the supernatants determined using a fluorimetric assay (Pierce). 200 ng peptide was loaded on Evotips (Evosep Biosystems). Peptides were separated on an Evosep One LC system coupled to a timsTOF Pro 2 instrument (Bruker) using a 30-sample-per-day method (44 min gradient). Peptides were resolved on an 8 cm, 1.5 μm x 150 μm Performance column (Evosep Biosystems). […] The relaxed-prot-inf option was used for library-free processing of the data. […] Match between runs (MBR) was enabled, and the normalization option switched on.

Series [3] concerns human myeloma cell lines (HMCL). Description: cell viability, panel of human myeloma cell lines +/- FKBP12 PROTAC. To be noted: all myeloma cell lines tested. The format is cell-based.
The next series deals with BRD4 43-463 Y97A (Homo sapiens, UniProt O60885, Y97A). Briefly: competitive FP assay, BRD4 tandem construct Y97A. The format is binding.
A further series addresses FKBP12 (Homo sapiens, UniProt P62942). Description: NanoBRET FKBP12 in intact HEK293 cells. The format is cell-based. A general note: Bioluminescence resonance energy transfer reports proximity on the nanometre scale.
The nature of series [4]: in vitro metabolic study (intrinsic clearance). The format is in vitro ADME. To be noted: intrinsic clearance (Clint) study, rebuttal letter. From the text:
4.2. To strengthen the paper, the authors should consider conducting in vivo experiments to […]
a more comprehensive understanding of the therapeutic potential and pharmacokinetic […]
The current compounds were designed for mechanistic studies, not for in vivo experiments. To assess the possibility of animal studies we conducted an in vitro metabolic study for the two most advanced compounds (a1dj and b3c). […]
labile (see below). While we agree that it is exciting to explore the influence of the CellTrap effect on pharmacokinetic properties this must be explored in follow up studies, which require substantial medicinal chemistry optimization. With the current compounds we believe animal experiments are ethically not warranted.
4.3. Are there specific residues essential for the observed cooperativity? If so, empirically mapping these mutants and testing for a reduction in binding would help validate the structures and provide clues to the translatability of the CellTrap mechanism. […]
mediate the direct protein contacts to BRD4. To explore this, we measured binding of the homolog FKBP51, which differs in the loop/strand regions, to BRD4. […]
cooperativity for any compound, strongly supporting the relevance of the crystallographically observed contact. We discussed this in the text as:
In both ternary complexes, contacts to BRD4BD1 are formed by the tip of the so called 80s loop of […]

The subject of series [5] is PNT1A cells. Briefly: co-culture live cell microscopy cell count, PNT1A. The format is cell-based. The conditions noted are these: all concentrations.
The test system of series [6] is PNT1A cells. Briefly: CellTiter-Glo cell viability, PNT1A. The format is cell-based. To be noted: concentrations of up to 1 µM.
The mark [7] stands for this setting: Binding to BRD4 43-463 Y97A + FKBP12 Kd, 15 µM FKBP12.
Setting [8] is: Binding to BRD4 43-463 Y97A - FKBP12 Kd, absence of FKBP12.

For the compound `Cc1sc2c(c1C)C(c1ccc(Cl)cc1)=NC(CC(=O)NCCOCCn1cc(COCC3CN(C(C)c4ccccn4)C(=O)C4CCCC3N4S(=O)(=O)c3cc(Cl)cc(Cl)c3)nn1)c1nnc(C)n1-2` (stereo not drawn) [a1dj], in series [1] (BRD4-degrading PROTAC 43), the “effect of prior BRD4 depletion on cellular compound levels” value is “did not affect cellular compound levels”. In addition, in [1] (MV4-11, 10 nM a1dj 2 h, mean across four independent experiments), the “concentration in the cellular fraction” value was 1680 ± 350 nM. The “reduction of intracellular accumulation upon FKBP12 degradation by PROTAC 5a1, mean” value in [1] (MV4-11, 100 nM 5a1) amounted to 51%. Besides, the “approximated concentration in the cellular fraction” value in series [1] (MV4-11, earlier manuscript version quoted in rebuttal) was more than 1.8 µM. Further, the “additional cellular enrichment mediated by other FKBPs” value in series [1] (abolished by competition with 10 µM 18-(S)Me) was determined as 22%. In addition, the “FKBP12-mediated share of cellular accumulation” value in series [1] (abolished by prior FKBP12 depletion, earlier manuscript version quoted in rebuttal) is reported as 58%. Besides, the “persistence of MYC repression after compound wash-out” value in the series with MYC mRNA is “up to 24 h”. Also, the “differentially expressed genes compared to JQ1-treated cells” value in the series on gene expression is “about 300 genes”. Also, the “effect on BRD4 levels by global proteomics” value in [2] was “did not affect BRD4 levels”. In series [3], the “cytotoxicity upon depletion of FKBP12 compared to JQ1” value is reported as “almost identical to JQ1”. For the same compound, the Kd at BRD4 43-463 Y97A (setting [7]) is 84 ± 10 nM; on BRD4 43-463 Y97A (setting [8]) it was 100 ± 17 nM. Besides, half-maximal inhibition against FKBP12 (IC50) required 2.6 nM. For the same compound, in [4], the “in vitro metabolic stability” value is on record as “metabolically labile”.
Turning to `Cc1sc2c(c1C)C(c1ccc(Cl)cc1)=NC(CC(=O)N1CCC3(CC1)CC(n1cc(C4CN(Cc5ccccn5)C(=O)C5CCCC4N5S(=O)(=O)c4cc(Cl)cc(Cl)c4)nn1)C3)c1nnc(C)n1-2` (stereo not drawn) [a13c], the “effect on PNT1A cells in co-culture” value in the series with PNT1A cells [5] is on record as “unaffected”. Also, the values for the Kd on BRD4 43-463 Y97A (setting [7]) and on BRD4 43-463 Y97A (setting [8]) were 670 ± 90 nM and 800 ± 110 nM, respectively. Besides, half-maximal inhibition against FKBP12 (IC50) was put at 76 nM. In addition, the “effect on PNT1A viability” value in the series on PNT1A cells [6] is “did not affect”.
In the case of `Cc1sc2c(c1C)C(c1ccc(C#CCNC(=O)COCCn3cc(C4CN(Cc5ccccn5)C(=O)C5CCCC4N5S(=O)(=O)c4cc(Cl)cc(Cl)c4)nn3)cc1)=NC(CC(=O)OC(C)(C)C)c1nnc(C)n1-2` (stereo not drawn) [b3c], the “differentially expressed genes compared to JQ1-treated cells” value in the series on gene expression is listed as “about 300 genes”. Also, the figures for the Kd at BRD4 43-463 Y97A (setting [7]) and on BRD4 43-463 Y97A (setting [8]) were 22 ± 3 nM and 178 ± 20 nM, respectively. Moreover, the IC50 at FKBP12 came to 29 nM. In [4], the “in vitro metabolic stability” value was “metabolically labile”.
